Experimental data from ChEMBL document CHEMBL2375312, “Novel and highly potent histamine H3 receptor ligands. Part 3: an alcohol function to improve the pharmacokinetic profile” (Bioorg Med Chem Lett, 2013).
Blank lines part the entries; values can stand above or below the molecule they belong to.

Experiments:
[1] = AUC in Swiss mouse plasma; type: ADME
[2] = Half life in Swiss mouse plasma; type: ADME
[3] = Cmax in Swiss mouse plasma; type: ADME
[4] = Tmax in Swiss mouse brain; type: ADME, tissue-based
[5] = Half life in Swiss mouse brain; type: ADME, tissue-based
[6] = Tmax in Swiss mouse plasma; type: ADME
[7] = Cmax in Swiss mouse brain; type: ADME, tissue-based
[8] = AUC in Swiss mouse brain; type: ADME, organism-based
Mus musculus [9] = assay: Inverse agonist activity at histamine H3 receptor in po dosed Swiss mouse assessed as release of N-tele-methylhistamine in brain after 90 mins by enzyme-immunoassay; type: functional; conditions: 1.5 h
[10] = Half life of the compound; type: physicochemical
Histamine H3 receptor [11] = target: Histamine H3 receptor (Homo sapiens, UniProt Q9Y5N1); assay: Displacement of [125I]-iodoproxyfan from human recombinant histamine H3 receptor expressed in HEK293 cells after 1 hr by gamma counting analysis; type: cell-based
Sequence of Histamine H3 receptor (Homo sapiens, UniProt Q9Y5N1) (Q9Y5N1 whole entry): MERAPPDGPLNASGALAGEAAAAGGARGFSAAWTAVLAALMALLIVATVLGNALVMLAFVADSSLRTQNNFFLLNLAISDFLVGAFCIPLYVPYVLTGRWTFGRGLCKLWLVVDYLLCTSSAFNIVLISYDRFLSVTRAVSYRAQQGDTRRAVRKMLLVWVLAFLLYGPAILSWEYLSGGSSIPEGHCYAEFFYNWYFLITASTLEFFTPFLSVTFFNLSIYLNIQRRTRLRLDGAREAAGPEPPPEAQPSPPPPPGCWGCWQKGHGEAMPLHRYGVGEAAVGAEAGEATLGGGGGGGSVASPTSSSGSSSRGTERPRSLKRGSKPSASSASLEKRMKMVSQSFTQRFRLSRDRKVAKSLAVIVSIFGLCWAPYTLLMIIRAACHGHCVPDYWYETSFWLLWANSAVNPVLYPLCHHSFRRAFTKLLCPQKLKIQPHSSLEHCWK

[12] = AUC (0 to 8 hrs) in Swiss mouse brain at 10 mg/kg, po by […] analysis; type: ADME, organism-based; parameters: time < 8 hr, dose 10 mg/kg, route oral
Cytochrome P450 3A4 = Cytochrome P450 3A4 (Homo sapiens, UniProt P08684); assay: Inhibition of human recombinant CYP3A4; type: ADME
Sequence of Cytochrome P450 3A4 (P08684 whole entry): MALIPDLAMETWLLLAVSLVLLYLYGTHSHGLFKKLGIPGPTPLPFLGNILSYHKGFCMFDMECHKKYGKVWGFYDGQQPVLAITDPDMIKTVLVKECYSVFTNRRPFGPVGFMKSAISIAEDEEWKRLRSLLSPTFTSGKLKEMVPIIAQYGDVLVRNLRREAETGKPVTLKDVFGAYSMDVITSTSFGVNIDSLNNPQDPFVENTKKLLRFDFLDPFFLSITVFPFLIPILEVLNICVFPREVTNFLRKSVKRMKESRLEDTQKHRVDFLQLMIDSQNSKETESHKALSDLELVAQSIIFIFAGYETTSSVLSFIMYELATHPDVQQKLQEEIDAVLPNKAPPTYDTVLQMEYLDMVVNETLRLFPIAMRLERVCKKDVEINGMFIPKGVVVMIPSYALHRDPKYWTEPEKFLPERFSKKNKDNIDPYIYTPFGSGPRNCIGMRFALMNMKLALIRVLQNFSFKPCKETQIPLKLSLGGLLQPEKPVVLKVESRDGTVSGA

[13] = target: Voltage-gated inwardly rectifying potassium channel KCNH2 (Homo sapiens, UniProt Q12809); assay: Binding affinity to human ERG
Sequence of Voltage-gated inwardly rectifying potassium channel KCNH2 (Q12809 whole entry): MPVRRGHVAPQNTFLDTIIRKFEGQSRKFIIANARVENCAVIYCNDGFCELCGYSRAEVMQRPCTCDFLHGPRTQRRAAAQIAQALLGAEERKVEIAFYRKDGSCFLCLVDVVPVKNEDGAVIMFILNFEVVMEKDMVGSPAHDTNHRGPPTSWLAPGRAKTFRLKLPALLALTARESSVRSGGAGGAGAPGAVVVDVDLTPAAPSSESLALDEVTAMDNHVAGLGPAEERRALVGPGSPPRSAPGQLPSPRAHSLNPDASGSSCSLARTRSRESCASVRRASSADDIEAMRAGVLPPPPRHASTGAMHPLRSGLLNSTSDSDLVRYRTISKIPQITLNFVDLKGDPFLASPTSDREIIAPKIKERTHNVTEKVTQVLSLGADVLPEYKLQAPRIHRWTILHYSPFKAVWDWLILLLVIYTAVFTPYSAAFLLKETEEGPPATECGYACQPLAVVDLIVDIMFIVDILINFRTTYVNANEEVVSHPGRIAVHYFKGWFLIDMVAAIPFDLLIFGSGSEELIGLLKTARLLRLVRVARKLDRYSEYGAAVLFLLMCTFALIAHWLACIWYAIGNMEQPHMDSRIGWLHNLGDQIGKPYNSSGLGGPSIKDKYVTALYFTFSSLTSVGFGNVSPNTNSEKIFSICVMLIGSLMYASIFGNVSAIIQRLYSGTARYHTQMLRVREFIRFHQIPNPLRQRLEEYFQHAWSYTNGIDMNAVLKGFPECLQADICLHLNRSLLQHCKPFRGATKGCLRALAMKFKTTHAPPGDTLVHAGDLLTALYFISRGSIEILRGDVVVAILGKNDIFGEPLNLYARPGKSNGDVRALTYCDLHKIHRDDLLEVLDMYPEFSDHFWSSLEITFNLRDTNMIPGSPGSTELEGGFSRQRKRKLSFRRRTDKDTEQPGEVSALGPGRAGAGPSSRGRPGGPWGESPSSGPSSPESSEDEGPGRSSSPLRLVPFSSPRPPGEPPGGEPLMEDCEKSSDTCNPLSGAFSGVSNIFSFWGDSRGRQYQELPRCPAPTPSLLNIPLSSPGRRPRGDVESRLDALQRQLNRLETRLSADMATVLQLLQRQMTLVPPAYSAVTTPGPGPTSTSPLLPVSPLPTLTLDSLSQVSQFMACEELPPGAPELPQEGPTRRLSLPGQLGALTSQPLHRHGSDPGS

Cytochrome P450 2C9 = Cytochrome P450 2C9 (Homo sapiens, UniProt P11712); assay: Inhibition of human recombinant CYP2C9; type: ADME
Sequence of Cytochrome P450 2C9 (P11712 whole entry): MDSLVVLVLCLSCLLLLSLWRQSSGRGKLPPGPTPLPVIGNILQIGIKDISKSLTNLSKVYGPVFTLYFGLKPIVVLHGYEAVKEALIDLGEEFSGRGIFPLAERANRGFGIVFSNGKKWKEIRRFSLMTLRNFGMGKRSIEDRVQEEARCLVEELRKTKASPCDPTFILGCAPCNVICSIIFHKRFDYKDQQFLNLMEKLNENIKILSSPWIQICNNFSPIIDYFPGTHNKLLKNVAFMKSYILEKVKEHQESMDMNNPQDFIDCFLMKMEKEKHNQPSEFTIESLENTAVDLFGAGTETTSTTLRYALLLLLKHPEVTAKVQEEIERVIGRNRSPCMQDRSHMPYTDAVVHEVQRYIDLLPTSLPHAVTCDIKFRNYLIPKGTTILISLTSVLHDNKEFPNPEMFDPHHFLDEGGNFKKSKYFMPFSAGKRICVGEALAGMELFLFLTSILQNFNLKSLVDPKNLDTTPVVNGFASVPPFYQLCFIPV

Histamine H3 receptor [14] = target: Histamine H3 receptor (Mus musculus, UniProt P58406); assay: Displacement of [125I]-iodoproxyfan from histamine H3 receptor in mouse brain cortex after 1 hr by gamma counting analysis; type: tissue-based
Sequence of Histamine H3 receptor (Mus musculus, UniProt P58406) (P58406 whole entry): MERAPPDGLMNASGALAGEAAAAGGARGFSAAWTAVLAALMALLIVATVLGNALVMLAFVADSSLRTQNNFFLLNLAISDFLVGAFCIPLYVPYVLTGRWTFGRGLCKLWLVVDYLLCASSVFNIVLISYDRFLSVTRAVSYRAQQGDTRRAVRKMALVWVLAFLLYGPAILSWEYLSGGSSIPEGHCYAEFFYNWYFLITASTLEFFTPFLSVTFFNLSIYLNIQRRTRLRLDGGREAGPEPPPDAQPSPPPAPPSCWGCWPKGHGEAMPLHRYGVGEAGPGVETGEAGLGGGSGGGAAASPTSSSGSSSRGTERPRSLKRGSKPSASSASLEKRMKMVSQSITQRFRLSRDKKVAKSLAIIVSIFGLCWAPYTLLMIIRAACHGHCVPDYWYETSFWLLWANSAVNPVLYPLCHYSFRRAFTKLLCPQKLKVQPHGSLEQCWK

Mus musculus [15] = assay: Inverse agonist activity at histamine H3 receptor in po dosed Swiss mouse assessed as release of N-tele-methylhistamine in brain after 90 mins by enzyme-immunoassay relative to ciproxifan; type: functional
[16] = AUC (0 to 8 hrs) in Swiss mouse plasma at 10 mg/kg, po by […] analysis; type: ADME, organism-based; parameters: time < 8 hr, dose 10 mg/kg, route oral
Cytochrome P450 2D6 = Cytochrome P450 2D6 (Homo sapiens, UniProt P10635); assay: Inhibition of human recombinant CYP2D6; type: ADME
Sequence of Cytochrome P450 2D6 (P10635 whole entry): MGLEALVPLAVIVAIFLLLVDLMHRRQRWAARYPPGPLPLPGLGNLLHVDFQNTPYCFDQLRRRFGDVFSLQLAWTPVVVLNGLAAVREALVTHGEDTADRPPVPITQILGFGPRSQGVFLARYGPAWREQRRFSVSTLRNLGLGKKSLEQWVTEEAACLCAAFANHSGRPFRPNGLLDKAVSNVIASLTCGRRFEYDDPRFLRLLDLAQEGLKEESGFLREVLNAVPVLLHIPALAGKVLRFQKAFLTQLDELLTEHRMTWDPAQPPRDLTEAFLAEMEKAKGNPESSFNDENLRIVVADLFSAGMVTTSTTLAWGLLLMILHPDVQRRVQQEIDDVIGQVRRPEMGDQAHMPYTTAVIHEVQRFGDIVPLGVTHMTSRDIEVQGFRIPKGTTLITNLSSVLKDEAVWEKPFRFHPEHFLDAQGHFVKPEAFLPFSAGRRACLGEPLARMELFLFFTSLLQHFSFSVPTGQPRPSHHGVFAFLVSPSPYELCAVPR

- Ki (Histamine H3 receptor [11]): 4.1 nM
SMILES: OC1(c2ccc(OCCCN3CCCCC3)cc2)CCOCC1

- Ki (Histamine H3 receptor [11]): 2.9 nM
SMILES: OC(c1ccc(OCCCN2CCCCC2)cc1)C1CCCCC1 (stereo unspecified)

- Ki (Histamine H3 receptor [11]): 13 nM
SMILES: OC(c1ccc(OCCCN2CCCCC2)cc1)C1CCOCC1 (stereo unspecified)

- Ki (Histamine H3 receptor [11]): 32 nM
SMILES: OCCc1ccc(OCCCN2CCCCC2)cc1

- Ki (Histamine H3 receptor [11]): 4 nM
SMILES: CC(C)(O)CCc1ccc(OCCCN2CCCCC2)cc1

- Ki (Histamine H3 receptor [11]): 15 nM
SMILES: OCC#Cc1ccc(OCCCN2CCCCC2)cc1

- AUC(0-t) at 8 h [12]: 18000 ng·h/mL
- IC50 (Cytochrome P450 3A4): 30300 nM
- IC50 (Cytochrome P450 2C9): 40300 nM
- Ki (Histamine H3 receptor [11]): 2.6 nM
- Ki (Histamine H3 receptor [14]): 6.9 nM
- AUC(0-t) at 8 h [16]: 4980 ng·h/mL
- IC50 (Cytochrome P450 2D6): > 100000 nM
SMILES: O[C@H]1CC[C@H](c2ccc(OCCCN3CCCCC3)cc2)CC1
- Ki [13]: 5800 nM
- Ratio (Mus musculus [15]): 1
- ED50 (Mus musculus [9]): 0.3 mg/kg

- Ki (Histamine H3 receptor [11]): 1.9 nM
- Ki (Histamine H3 receptor [14]): 6.3 nM
SMILES: OC1CCC(Cc2ccc(OCCCN3CCCCC3)cc2)CC1 (stereo unspecified)

- Ki (Histamine H3 receptor [11]): 22.7 nM
SMILES: OCc1ccc(OCCCN2CCCCC2)cc1

- Ki (Histamine H3 receptor [11]): 6.8 nM
SMILES: CC(C)(O)c1ccc(OCCCN2CCCCC2)cc1

- Ki (Histamine H3 receptor [11]): 8.6 nM
- Ki (Histamine H3 receptor [14]): 18 nM
SMILES: C=CC(O)c1ccc(OCCCN2CCCCC2)cc1 (stereo unspecified)

- Ki (Histamine H3 receptor [11]): 18 nM
SMILES: OC1(c2ccc(OCCCN3CCCCC3)cc2)CCC1

- Ki (Histamine H3 receptor [14]): 7.6 nM
SMILES: OC1(c2ccc(OCCCN3CCCCC3)cc2)CCCC1

- Ki (Histamine H3 receptor [11]): 3.9 nM
SMILES: OC1(c2ccc(OCCCN3CCCCC3)cc2)CCCCC1

Continued, molecule first:

SMILES: c1cc([C@H]2CC[C@H](N3CCOCC3)CC2)ccc1OCCCN1CCCCC1
- AUC [1]: 2110 ng·h/mL
- half-life [2]: 5 h
- Cmax [3]: 357 ng/mL
- Tmax [4]: 1.5 h
- half-life [5]: > 10 h
- Tmax [6]: 1.5 h
- Cmax [7]: 2380 ng/mL
- AUC [8]: 15600 ng·h/mL
- ED50 (Mus musculus [9]): 1.3 mg/kg

SMILES: COCCCS(=O)(=O)c1ccc(-c2ccc(CCN3CCC[C@H]3C)cc2)cc1
- half-life [10]: 50 h

SMILES: CC(O)CCc1ccc(OCCCN2CCCCC2)cc1 (stereo unspecified)
- Ki (Histamine H3 receptor [11]): 3.3 nM

SMILES: OCCC#Cc1ccc(OCCCN2CCCCC2)cc1
- Ki (Histamine H3 receptor [11]): 19 nM

SMILES: C=CCC(O)c1ccc(OCCCN2CCCCC2)cc1 (stereo unspecified)
- Ki (Histamine H3 receptor [11]): 6.9 nM

SMILES: CCC(O)(CC)c1ccc(OCCCN2CCCCC2)cc1
- Ki (Histamine H3 receptor [11]): 1.4 nM
- Ki (Histamine H3 receptor [14]): 14 nM

SMILES: CCCC(O)(CCC)c1ccc(OCCCN2CCCCC2)cc1
- Ki (Histamine H3 receptor [14]): 2.5 nM

SMILES: C=CCC(O)(CC=C)c1ccc(OCCCN2CCCCC2)cc1
- Ki (Histamine H3 receptor [11]): 0.54 nM
- Ki (Histamine H3 receptor [14]): 4.3 nM

SMILES: OC1CCN([C@H]2CC[C@H](c3ccc(OCCCN4CCCCC4)cc3)CC2)CC1 (mixture of isomers)
- AUC [1]: 1520 ng·h/mL
- half-life [2]: 6 h
- Cmax [3]: 399 ng/mL
- Tmax [4]: 3 h
- half-life [5]: > 10 h
- Tmax [6]: 1.5 h
- Cmax [7]: 215 ng/mL
- AUC [8]: 1520 ng·h/mL
